Measured values: patent publication US5747495A, “Method for treating hypertension using pyrazolopyrimidine derivatives” (Maeda; Hiroshi, priority 1995, dated 1998)
Several values for one entry are separate records, joined by “and”; a condition that tells them apart may be missing. Equal entries are not always repeated. Values belong to the molecule of their own block, whether it stands above or below them.

Legend:
[1] = target: T1, cow milk xanthine oxidase (Bos taurus, UniProt P80457); experiment: Inhibition of uric acid production by xanthine oxidase in vitro; format: biochemical
T1 construct: in the presence of cow milk xanthine oxidase; from tissue; host or cells: cow milk
Protocol: Inhibitory Effect of AHPP Against Uric Acid Production by Xanthine Oxidase In Vitro
Rate of uric acid production was determined by measuring the increase of an optical absorbance at 290 nm in 50 mM phosphate buffer solution (pH 7.5) containing 2.19-21.9 μmole/L of xanthine and 0-0.44 μmole/L AHPP in the presence of cow milk xanthine oxidase in the final concentration of 3.33 mU/ml. […] The inhibitory coefficient (Ki) of AHPP for xanthine oxidase was determined to be 0.2 μM, by an analysis of its reaction velocity kinetics.

[2] = target: xanthine oxidase derived from cow milk (Bos taurus, UniProt P80457); experiment: Inhibition of superoxide production by xanthine oxidase in vitro (lucigenin chemiluminescence); format: biochemical; details: for Integral value of intensity of chemiluminescence/10 min: average of two measurements, without AHPP 5.2 × 10^6 count
Protocol: Inhibitory Effect of AHPP against Superoxide Production by Xanthine Oxidase In Vitro
Production of superoxide radicals was determined by measuring a chemiluminescence observed in 100 mM phosphate buffer (pH 7.4) containing 10 μmole/L lucigenin and […] xanthine in the presence of 20 U/ml of xanthine oxidase derived from cow milk. Further, the inhibition of superoxide generation by the AHPP was evaluated by addition of 0-100 μmole/L of AHPP into the reaction mixture.

Rabbit Aortic Ring = experiment: Relaxation of phenylepherine-contracted rabbit aortic ring by acetylcholine in the presence of AHPP; set-up: species or system New Zealand White rabbit; details: for Amount of acethylcholine required to inhibit 50% relaxation of aorta ring: 0.11 without AHPP
Protocol: Synergistic Vascular Relaxation Effect to Acetylcholine of Rabbit Aortic Ring by AHPP Aortic ring with a diameter of 5 mm was prepared from chest aorta of New Zealand White female rabbits with a body weight of 2.5-3.0 kg. The rings were surgically prepared and hanged into the organ bath containing 20 ml of Krebs solution, which was kept at 37° C. and supplemented with 95% O2 and 5% CO2, for determination of the tension. Aortic ring relaxation by […] acetylcholine was measured in the prescence of 0, 100, and 300 μmole/L of AHPP, after aortic ring contraction was induced by 0.15 μmole/L phenylepherine.

[3] = system: Spontaneously Hypertensive Rats; experiment: Mean arterial blood pressure of spontaneously hypertensive rats after intravenous injection; format: in vivo, rat; details: 50 mg/kg, average of 8 rats
Protocol: Effect of Intravenous Injection of AHPP on the Blood Pressure of Spontaneously Hypertensive Rats
Eighteen weeks old spontaneously hypertensive 8 male rats weighing 300-400 g were intravenously infused with 50 mg/kg of AHPP in a solution dissolved in 1 ml of 0.1 M NaOH for 5 minutes (8 rats), and mean arterial blood pressure was measured under anesthesia. Eight control rats were received only 0.1 M NaOH by intravenous infusion.
Dose of AHPP. 50 mg/kg in rats. 0.33 mmol/ml, 1.0 ml/5 min. See text for details. Average value of 8 measurements ±SD.

[4] = system: Spontaneously Hypertensive Rats; experiment: Systolic blood pressure of spontaneously hypertensive rats after oral administration; format: in vivo, rat; details: 100 mg/kg oral, 4 hours after treatment, male spontaneously hypertensive rats
Protocol: Effects of Oral Administration of AHpp on the Blood Pressure of Spontaneously Hypertensive Rats
Four male spontaneously hypertensive rats with a body weight of […] and 4 male rats with a body weight of 200-300 g were orally given with 100 mg/kg of AHPP and a systolic blood pressure in tail artery was examined 4 hours after the treatment. Systolic blood pressure of the treated group was reduced to 70% the value of before

xanthine oxidase = details: J. Biol. Chem., 226, 993-1000, 1957; cited from earlier work
xanthine dehydrogenase = details: Yokohama Med. Bull., 29, 53-58, 1978; cited from earlier work
tryptophan pyrolase = details: Life Sci., 8, 843-851, 1969; cited from earlier work

Sequence of xanthine oxidase derived from cow milk (P80457 whole entry): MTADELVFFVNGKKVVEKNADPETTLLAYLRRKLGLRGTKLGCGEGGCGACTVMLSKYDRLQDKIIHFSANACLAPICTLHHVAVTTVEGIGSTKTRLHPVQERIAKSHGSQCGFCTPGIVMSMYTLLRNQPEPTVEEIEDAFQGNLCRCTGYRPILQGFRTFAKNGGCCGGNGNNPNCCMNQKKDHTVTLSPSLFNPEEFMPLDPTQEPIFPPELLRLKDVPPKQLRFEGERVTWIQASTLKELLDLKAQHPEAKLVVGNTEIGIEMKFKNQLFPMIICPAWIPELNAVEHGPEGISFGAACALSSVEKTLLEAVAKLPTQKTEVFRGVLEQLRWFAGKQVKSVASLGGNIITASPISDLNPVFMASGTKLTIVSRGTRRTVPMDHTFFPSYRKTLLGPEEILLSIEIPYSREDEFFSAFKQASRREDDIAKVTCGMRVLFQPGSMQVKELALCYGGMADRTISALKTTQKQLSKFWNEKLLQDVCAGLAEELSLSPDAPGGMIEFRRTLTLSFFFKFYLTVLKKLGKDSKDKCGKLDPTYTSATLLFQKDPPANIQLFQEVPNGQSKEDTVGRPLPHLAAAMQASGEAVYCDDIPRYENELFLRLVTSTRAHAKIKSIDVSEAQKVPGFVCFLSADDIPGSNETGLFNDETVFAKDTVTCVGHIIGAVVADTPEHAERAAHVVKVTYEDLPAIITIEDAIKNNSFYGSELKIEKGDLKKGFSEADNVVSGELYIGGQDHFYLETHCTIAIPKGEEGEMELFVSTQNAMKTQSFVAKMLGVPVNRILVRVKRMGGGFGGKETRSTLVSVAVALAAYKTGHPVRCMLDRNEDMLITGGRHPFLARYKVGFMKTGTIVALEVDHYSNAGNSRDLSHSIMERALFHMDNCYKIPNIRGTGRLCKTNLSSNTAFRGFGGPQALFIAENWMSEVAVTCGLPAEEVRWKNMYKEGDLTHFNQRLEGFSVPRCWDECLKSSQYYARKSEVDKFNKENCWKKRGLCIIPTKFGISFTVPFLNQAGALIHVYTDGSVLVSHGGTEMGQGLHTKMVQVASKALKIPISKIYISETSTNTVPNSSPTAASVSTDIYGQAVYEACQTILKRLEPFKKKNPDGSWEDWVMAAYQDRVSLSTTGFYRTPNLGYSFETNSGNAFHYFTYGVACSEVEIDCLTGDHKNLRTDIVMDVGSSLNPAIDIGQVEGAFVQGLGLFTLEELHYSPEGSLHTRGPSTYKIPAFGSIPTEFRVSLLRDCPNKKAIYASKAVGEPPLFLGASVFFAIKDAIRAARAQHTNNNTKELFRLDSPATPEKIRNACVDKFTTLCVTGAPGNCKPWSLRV
T1 sequence (P80457 whole entry): as above

Ki ([1]; pH 7.5, 2.19-21.9 μmole/L xanthine, 0-0.44 μmole/L AHPP, 3.33 mU/ml enzyme, read-out: inhibitory coefficient (Ki) for xanthine oxidase): 200 nM | type of inhibition of xanthine oxidase ([1]; reaction velocity kinetics): competitive inhibition | Integral value of intensity of chemiluminescence/10 min ([2]; 1 μmole/L AHPP): 4.4 × 10^6 count | Integral value of intensity of chemiluminescence/10 min ([2]; 10 μmole/L AHPP): 1.6 × 10^6 count
SMILES: Nc1nc(O)nc2[nH]ncc12 [AHPP, 4-amino-6-hydroxypyrazolo [3,4-d]pyrimidine]
inhibition of uric acid production by xanthine oxidase ([1]; 0-0.44 μmole/L AHPP, pH 7.5): inhibited by AHPP in a dose-dependent manner | inhibition of superoxide production by xanthine oxidase ([2]; 0-100 μmole/L AHPP, pH 7.4): inhibit superoxide production by xanthine oxidase in a dose-dependent manner | dose of phenylepherine required for 50% relaxation of phenylepherine-induced aortic ring contraction (Rabbit Aortic Ring; 0, 100, and 300 μmole/L AHPP): reduced depending on the concentration of AHPP | Amount of acethylcholine required to inhibit 50% relaxation of aorta ring (Rabbit Aortic Ring; 100 μmole/L AHPP, contraction by 0.15 μmole/L phenylepherine, average of four measurements): 0.075 | Amount of acethylcholine required to inhibit 50% relaxation of aorta ring (Rabbit Aortic Ring; 300 μmole/L AHPP, contraction by 0.15 μmole/L phenylepherine, average of four measurements): 0.055 | Mean arterial blood pressure (100% = preinjection value) ([3]; 5 min after iv, control 105.5 ± 7.5): 98.3 ± 2.7% | Mean arterial blood pressure (100% = preinjection value) ([3]; 10 min after iv, control 107.3 ± 6.9): 92.2 ± 6.1% | Mean arterial blood pressure (100% = preinjection value) ([3]; 15 min after iv, control 106.1 ± 6.3): 91.1 ± 5.6% | Mean arterial blood pressure (100% = preinjection value) ([3]; 20 min after iv, control 105.0 ± 6.6): 86.9 ± 8.0% | Mean arterial blood pressure (100% = preinjection value) ([3]; 30 min after iv, control 103.3 ± 4.2): 81.7 ± 5.0% | Mean arterial blood pressure (100% = preinjection value) ([3]; 40 min after iv, control 100.5 ± 3.1): 77.7 ± 5.2% | Mean arterial blood pressure (100% = preinjection value) ([3]; 50 min after iv, control 98.9 ± 3.3): 76.1 ± 7.2% | Mean arterial blood pressure (100% = preinjection value) ([3]; 60 min after iv, control 97.5 ± 4.1): 73.5 ± 7.5% | Mean arterial blood pressure (100% = preinjection value) ([3]; 70 min after iv, control 96.7 ± 5.0): 72.4 ± 6.6% and 72% | Systolic blood pressure in tail artery, % of value before [4]: 70% | inhibition of xanthine oxidase (xanthine oxidase): potent inhibitor | inhibition of xanthine dehydrogenase (xanthine dehydrogenase): potent inhibitor | inhibition of tryptophan pyrolase (tryptophan pyrolase): potent inhibitor

SMILES: CC(=O)OCC[N+](C)(C)C [acetylcholine, reference compound]
EC50 (Rabbit Aortic Ring; Oryctolagus cuniculus, 0 μmole/L AHPP, contraction by 0.15 μmole/L phenylepherine, average of four measurements, read-out: Amount of acethylcholine required to inhibit 50% relaxation of aorta ring): 110 nM
